Experimental data as given in paper PMC5540273, “Progress towards a public chemogenomic set for protein kinases and a call for contributions” (PLoS ONE, 2017).

Assays:
Test in all cases: KINOMEscan competition binding
[1] = molecular target: BTK (Homo sapiens, UniProt Q06187); conditions: read-out: %Inh BTK
[2] = molecular target: CAMK1B (Homo sapiens, UniProt Q6P2M8); conditions: read-out: %Inh CAMK1B
[3] = molecular target: T1, ERK8 (Homo sapiens, UniProt Q8TD08); conditions: read-out: %Inh ERK8
T1 sequence (Q8TD08 1-544): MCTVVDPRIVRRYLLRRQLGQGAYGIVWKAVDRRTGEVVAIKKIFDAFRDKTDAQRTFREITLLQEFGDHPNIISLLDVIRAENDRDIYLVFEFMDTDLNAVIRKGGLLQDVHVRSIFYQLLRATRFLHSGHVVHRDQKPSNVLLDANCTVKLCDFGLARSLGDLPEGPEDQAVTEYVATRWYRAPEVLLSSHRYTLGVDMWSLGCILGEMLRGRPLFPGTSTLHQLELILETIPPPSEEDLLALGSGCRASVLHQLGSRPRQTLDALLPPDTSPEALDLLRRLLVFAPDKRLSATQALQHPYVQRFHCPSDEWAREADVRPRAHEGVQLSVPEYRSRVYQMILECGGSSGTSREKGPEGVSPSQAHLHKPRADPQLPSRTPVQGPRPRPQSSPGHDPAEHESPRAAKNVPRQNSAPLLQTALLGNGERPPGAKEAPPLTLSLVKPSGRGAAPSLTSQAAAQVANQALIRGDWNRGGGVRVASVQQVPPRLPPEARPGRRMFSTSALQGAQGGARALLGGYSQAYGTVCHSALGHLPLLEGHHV

[4] = molecular target: T2, FLT3-autoinhibited (Homo sapiens, UniProt P36888); conditions: read-out: %Inh FLT3-autoinhibited
T2 sequence (P36888 27-993): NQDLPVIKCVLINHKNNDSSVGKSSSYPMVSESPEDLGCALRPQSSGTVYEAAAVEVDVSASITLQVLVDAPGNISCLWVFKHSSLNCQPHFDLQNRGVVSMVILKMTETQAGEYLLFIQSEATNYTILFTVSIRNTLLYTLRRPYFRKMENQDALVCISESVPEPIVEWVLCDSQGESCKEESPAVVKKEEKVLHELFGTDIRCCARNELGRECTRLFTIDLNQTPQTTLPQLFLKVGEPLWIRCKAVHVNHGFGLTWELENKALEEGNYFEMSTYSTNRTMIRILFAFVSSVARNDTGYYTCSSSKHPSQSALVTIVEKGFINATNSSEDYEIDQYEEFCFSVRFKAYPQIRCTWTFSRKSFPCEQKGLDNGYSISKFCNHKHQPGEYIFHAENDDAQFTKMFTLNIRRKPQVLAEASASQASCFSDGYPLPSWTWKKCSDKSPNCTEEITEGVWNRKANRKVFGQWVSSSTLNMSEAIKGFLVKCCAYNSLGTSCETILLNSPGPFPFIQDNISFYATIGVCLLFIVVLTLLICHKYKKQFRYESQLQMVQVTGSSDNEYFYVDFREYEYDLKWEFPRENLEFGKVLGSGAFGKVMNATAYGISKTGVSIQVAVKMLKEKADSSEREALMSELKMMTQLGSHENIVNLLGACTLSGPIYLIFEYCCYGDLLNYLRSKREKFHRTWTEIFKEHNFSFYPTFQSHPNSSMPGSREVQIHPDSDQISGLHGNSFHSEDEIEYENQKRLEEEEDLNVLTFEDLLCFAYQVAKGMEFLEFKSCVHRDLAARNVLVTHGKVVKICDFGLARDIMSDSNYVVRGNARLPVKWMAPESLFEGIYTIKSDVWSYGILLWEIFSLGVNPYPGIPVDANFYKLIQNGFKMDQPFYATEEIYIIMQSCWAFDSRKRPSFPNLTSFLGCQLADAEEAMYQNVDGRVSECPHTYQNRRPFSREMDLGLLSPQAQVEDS

[5] = molecular target: HIPK2 (Homo sapiens, UniProt Q9H2X6); conditions: read-out: %Inh HIPK2
Chain of HIPK2 (Q9H2X6 whole entry): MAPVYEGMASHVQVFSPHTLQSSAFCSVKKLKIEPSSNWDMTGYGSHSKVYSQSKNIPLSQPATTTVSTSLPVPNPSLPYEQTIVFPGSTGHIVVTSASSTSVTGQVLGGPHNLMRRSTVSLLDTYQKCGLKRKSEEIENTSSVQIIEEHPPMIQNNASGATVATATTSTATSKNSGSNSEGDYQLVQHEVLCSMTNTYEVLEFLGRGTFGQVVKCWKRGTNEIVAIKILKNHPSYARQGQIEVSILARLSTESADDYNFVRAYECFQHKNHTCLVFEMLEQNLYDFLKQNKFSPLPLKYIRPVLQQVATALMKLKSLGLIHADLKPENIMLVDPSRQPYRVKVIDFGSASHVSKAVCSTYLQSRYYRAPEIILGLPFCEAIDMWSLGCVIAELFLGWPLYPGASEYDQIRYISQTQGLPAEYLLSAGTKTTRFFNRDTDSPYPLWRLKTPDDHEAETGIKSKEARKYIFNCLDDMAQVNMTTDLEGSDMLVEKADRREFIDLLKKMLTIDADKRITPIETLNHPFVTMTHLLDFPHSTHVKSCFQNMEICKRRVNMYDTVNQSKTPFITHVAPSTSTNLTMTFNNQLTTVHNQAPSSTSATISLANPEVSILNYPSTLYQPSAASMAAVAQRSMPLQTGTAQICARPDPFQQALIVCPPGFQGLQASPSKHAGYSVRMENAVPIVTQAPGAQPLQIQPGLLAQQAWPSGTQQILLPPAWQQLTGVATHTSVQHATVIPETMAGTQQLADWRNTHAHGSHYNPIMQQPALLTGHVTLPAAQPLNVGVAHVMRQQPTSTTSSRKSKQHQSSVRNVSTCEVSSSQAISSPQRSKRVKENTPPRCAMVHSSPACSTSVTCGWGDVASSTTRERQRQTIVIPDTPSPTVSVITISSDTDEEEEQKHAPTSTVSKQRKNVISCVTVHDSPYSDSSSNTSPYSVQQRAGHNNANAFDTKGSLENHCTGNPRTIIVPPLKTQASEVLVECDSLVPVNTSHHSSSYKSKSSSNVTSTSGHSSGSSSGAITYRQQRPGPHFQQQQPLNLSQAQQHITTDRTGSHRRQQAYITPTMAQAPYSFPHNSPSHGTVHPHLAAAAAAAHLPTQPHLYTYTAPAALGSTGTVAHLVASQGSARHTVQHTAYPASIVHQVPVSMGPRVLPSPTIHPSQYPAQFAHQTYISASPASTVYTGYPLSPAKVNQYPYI

[6] = molecular target: T3, IRAK4 (Homo sapiens, UniProt Q9NWZ3); conditions: read-out: %Inh IRAK4
T3 sequence (Q9NWZ3 1-460): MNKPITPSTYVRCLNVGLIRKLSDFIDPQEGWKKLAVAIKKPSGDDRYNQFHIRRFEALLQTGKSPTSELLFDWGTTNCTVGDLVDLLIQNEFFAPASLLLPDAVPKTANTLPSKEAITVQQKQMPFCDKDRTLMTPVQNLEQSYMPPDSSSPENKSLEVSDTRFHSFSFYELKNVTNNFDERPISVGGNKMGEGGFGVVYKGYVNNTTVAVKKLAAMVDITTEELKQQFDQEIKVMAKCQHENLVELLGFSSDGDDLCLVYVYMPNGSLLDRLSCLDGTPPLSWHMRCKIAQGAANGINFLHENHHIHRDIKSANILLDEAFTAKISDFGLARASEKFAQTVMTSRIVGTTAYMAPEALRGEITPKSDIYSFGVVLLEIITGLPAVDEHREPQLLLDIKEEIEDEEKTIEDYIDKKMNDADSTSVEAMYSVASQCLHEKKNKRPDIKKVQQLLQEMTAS

[7] = molecular target: JAK2(JH1domain-catalytic) (Homo sapiens, UniProt O60674); conditions: read-out: %Inh JAK2(JH1domain-catalytic)
Chain of JAK2(JH1domain-catalytic) (O60674 840-1132 limits assumed): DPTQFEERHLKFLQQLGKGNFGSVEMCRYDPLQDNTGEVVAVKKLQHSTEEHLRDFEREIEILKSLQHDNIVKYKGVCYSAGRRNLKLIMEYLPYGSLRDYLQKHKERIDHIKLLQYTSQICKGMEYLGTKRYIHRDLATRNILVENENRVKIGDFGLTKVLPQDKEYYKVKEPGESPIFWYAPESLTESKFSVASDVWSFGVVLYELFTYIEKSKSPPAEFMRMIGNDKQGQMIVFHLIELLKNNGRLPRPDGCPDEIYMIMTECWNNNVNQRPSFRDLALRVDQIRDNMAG

Chain of CAMK1B (Q6P2M8 whole entry): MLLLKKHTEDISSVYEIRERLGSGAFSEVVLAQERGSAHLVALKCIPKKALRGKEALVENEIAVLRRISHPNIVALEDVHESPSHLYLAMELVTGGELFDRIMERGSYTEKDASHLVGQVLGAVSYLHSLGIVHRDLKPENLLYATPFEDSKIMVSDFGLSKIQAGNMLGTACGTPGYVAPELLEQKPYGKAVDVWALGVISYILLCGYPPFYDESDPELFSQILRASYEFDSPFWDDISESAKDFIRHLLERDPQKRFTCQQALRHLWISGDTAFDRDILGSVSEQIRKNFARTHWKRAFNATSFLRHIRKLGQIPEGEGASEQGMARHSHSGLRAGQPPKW
Chain of BTK (Q06187 whole entry): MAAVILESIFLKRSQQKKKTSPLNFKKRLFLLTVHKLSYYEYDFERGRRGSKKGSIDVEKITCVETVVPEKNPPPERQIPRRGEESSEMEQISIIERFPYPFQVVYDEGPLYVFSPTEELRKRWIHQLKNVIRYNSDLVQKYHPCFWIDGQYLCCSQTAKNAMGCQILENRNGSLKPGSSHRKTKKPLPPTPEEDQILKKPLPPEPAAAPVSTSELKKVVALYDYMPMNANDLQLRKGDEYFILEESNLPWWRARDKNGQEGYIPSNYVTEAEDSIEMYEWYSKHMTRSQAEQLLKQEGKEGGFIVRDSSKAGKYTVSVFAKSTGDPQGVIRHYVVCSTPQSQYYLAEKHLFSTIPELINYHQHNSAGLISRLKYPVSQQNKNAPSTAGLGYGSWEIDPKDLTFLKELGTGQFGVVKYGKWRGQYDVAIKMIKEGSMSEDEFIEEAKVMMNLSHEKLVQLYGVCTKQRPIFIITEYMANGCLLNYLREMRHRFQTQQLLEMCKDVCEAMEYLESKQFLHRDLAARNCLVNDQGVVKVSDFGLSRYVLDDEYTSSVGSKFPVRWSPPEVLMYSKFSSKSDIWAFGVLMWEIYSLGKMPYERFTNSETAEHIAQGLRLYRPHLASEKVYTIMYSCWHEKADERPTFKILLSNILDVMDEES

| SMILES | inhibition at 1 µM [1] [%] | inhibition at 1 µM [2] [%] | inhibition at 1 µM [3] [%] | inhibition at 1 µM [4] [%] | inhibition at 1 µM [5] [%] | inhibition at 1 µM [6] [%] | inhibition at 1 µM [7] [%] |
| --- | --- | --- | --- | --- | --- | --- | --- |
| CS(=O)(=O)Cc1ccc(Nc2nccc(-c3c(-c4cccc(NC(=O)C5CCCCC5)c4)nn4ncccc34)n2)cc1 [UNC10225159A] | 0 | 0 | 0 | 25 | 14 | 25 | 16 |
| Cn1cc(-c2cnc(N)c3c(-c4ccc5c(c4)CCN5C(=O)Cc4ccccc4)csc23)cn1 [UNC10225012A] | 0 | 0 | 11 | 0 | 0 | 0 | 26 |
| O=c1cc(N2CCOCC2)nc2n(Cc3cccc(Cl)c3Cl)c(C3CC3)nn12 [UNC10225469A] | 0 | 0 | 13 | 0 | 0 | 0 | 6 |
| COc1cccc(OC)c1C(=O)Nc1cccc(-c2nn3ccccc3c2-c2ccnc(Nc3cccc(F)c3)n2)c1 [UNC10225310A] | 0 | 0 | 3 | 0 | 0 | 0 | 3 |
| Cc1ccc(NC(=O)Nc2cccc(C(F)(F)F)c2)cc1 [UNC10225187A] | 0 | 0 | 0 | 0 | 0 | 0 | 0 |
